Values after ≈ are worked out from the molar mass of the structure shown. Read-outs that look alike come from different tables or passages of the source.
What was measured:
[1] = component at 100%; cited from earlier work
[2] = component at 100%; cited from earlier work; remark: listed apart in the source
[3] = component at 100%; cited from earlier work; remark: listed apart in the source
[4] = Acute oral toxicity, rat; settings: for LD50: rat, in vivo, po
[5] = Acute dermal toxicity, rabbit; settings: for LD50: rabbit, in vivo, topical or ocular
[6] = Acute inhalation toxicity, rat; settings: for LC50: rat, in vivo, inhaled
[7] = tested on: C. albicans; assay: MIC and MBC determination by doubling dilutions (Study 509-102); assay type: cell-based; settings: Candida albicans, Inoculum Counts: 6.6 × 10^5
From the text: (§1) Table 2 below indicates the stock dilutions for each test agent, and a breakdown of the resulting concentrations for each of the doubling dilutions performed is summarized in Table 3.
(§2) From the stock dilutions, an initial 1:10 dilution was made (representing tube 1), followed by doubling dilutions (tubes 2-12), as detailed in Table 3.

[8] = tested on: Escherichia coli; assay: as above; assay type: cell-based; settings: Inoculum Counts: 9.4 × 10^5
From the text: as §1, §2

[9] = tested on: Pseudomonas aeruginosa; assay: as above; assay type: cell-based; settings: Inoculum Counts: 8.8 × 10^5
From the text: as §1, §2

[10] = tested on: S. epidermidis; assay: as above; assay type: cell-based; settings: Staphylococcus epidermidis, Inoculum Counts: 9.0 × 10^5
From the text: as §1, §2

[11] = tested on: S. pyogenes; assay: as above; assay type: cell-based; settings: Streptococcus pyogenes, Inoculum Counts: 9.8 × 10^5
From the text: as §1, §2

[12] = tested on: Staphylococcus aureus; assay: as above; assay type: cell-based; settings: Inoculum Counts: 7.5 × 10^6
From the text: as §1, §2

[13] = tested on: T. rubrum; assay: as above; assay type: cell-based, Trichophyton rubrum; settings: Trichophyton rubrum; Study 509-102; Inoculum Counts: 3.6 × 10^8
From the text: as §1, §2

[14] = tested on: S. epidermidis ATCC 12228; assay: NCCLS broth microdilution MIC and MBC (Example 10); assay type: cell-based, Staphylococcus epidermidis; settings: for bactericidal activity: MBC within one doubling dilution of the MIC
Description: (§4) Strains of E. coli (ATCC 11229), D. aeruginosa (ATCC 15442), S. aureus (ATCC 25923), S. epidermidis (ATCC 12228), S. pyogenes (ATCC 19615), C. albicans (ATCC 10231), and T. rubrum (ATCC 28188) were used as “challenge microorganisms” in this study. Strains were removed from frozen stock and subcultured twice on blood agar to ensure that the strains had optimal growth and metabolic status before testing.
(§5) Hibiclens (industry comparator) and ciprofloxacin were added to the bacterial panel. Amphotericin B, fluconazole, and Hibiclens were added as comparative agents in the fungal panels.
(§6) For testing purposes, AMC, AMC components, and Hibiclens were diluted to 50% of the working solution to cover the proposed AMC use dilution of 20%.
(§7) Microtiter panels were created on the day of MIC testing. A 50 μl aliquot of Mueller-Hinton broth (for bacterial strains) or RPMI 1640 (for fungal strains) was delivered to each well, except those in column one of the microtiter panel. The working solution of AMC and each of its components, and comparative agents were delivered to the designated wells in column one. AMC, components, and comparators were serially diluted across the panel. A 50 μl aliquot of bacterial or fungal suspension was then added to each well on the microtiter panel, using a new pipette tip for each aliquot. Panels were incubated at 35° C. for 16-20 h for the E. coli, P. aeruginosa, and S. aureus strains, 20-24 h for the S. pyogenes strain, and 48 h for the C. albicans strain.
(§8) The 10 μl samples were plated on to blood agar and incubated at 35° C. for 24 h (E. coli and P. aeruginosa) or 48 h (S. aureus, S. epidermidis, and S. pyogenes). After incubation, colony counts for each panel well plated were recorded.
(§9) The MIC % is expressed as g/100 ml or ml/100 ml. […] The MBC % is expressed as g/100 ml or ml/100 ml.

[15] = tested on: S. aureus ATCC 25923; assay: NCCLS broth microdilution MIC and MBC (Example 10); assay type: cell-based, Staphylococcus aureus; settings: for bactericidal activity: MBC within one doubling dilution of the MIC
Description: as §4, §5, §6, §7, §8, §9

[16] = tested on: S. pyogenes ATCC 19615; assay: NCCLS broth microdilution MIC and MBC (Example 10); assay type: cell-based, Streptococcus pyogenes
Description: as §4, §5, §6, §7, §8, §9

[17] = tested on: E. coli ATCC 11229; assay: NCCLS broth microdilution MIC and MBC (Example 10); assay type: cell-based, Escherichia coli
Description: as §4, §5, §6, §7, §8, §9

[18] = tested on: P. aeruginosa ATCC 15442; assay: NCCLS broth microdilution MIC and MBC (Example 10); assay type: cell-based, Pseudomonas aeruginosa
Description: as §4, §5, §6, §7, §8, §9

[19] = tested on: E. coli (strain 1257); assay: Time-kill test, initial studies (death time); assay type: cell-based, Escherichia coli
From the text: (§3) Time-kill tests were used to measure the disinfecting property of test compounds, e.g., microbiocidal or sporicidal compositions, using select bacterial challenge microorganisms such as the vegetative forms of, e.g., E. coli (strain 1257) S. aureus (strain 906), and Bacillus cereus (strain 96).

[20] = tested on: S. aureus (strain 906); assay: Time-kill test, initial studies (death time); assay type: cell-based, Staphylococcus aureus
From the text: as §3

[21] = tested on: Bacillus cereus (strain 96); assay: Time-kill test, initial studies (death time, sporicidal activity); assay type: cell-based; settings: Conc. 5.0 %
[22] = tested on: Trichophyton rubrum (ATCC 28188); assay: Time-Kill test (Example 9); assay type: cell-based; settings: for 30-Second Log Reduction from Initial T. rubrum CFU Values: Table 25, first value column
Description: A panel of “challenge microorganisms,” including select bacteria, yeast, and fungi was used to assess the disinfecting properties of test compounds, e.g., AMC (DPT Laboratories). […] The procedure was based on the ASTM procedure entitled, “Standard Test Method for the Assessment of Microbial Activity of Test Materials Using Time-Kill Procedure.”
A single lot of test material was prepared at various concentrations, along with multiple compounds prepared in various concentrations and combinations. These test materials were tested in duplicate against various bacteria, yeast and fungi. To minimize potential buffer interference and to minimize reduction of antimicrobial activity, the volume of the inoculum added to the test material was maintained at, or below, 1% of the total volume of the test. Samples were removed at various contact times. Serial dilutions were performed, and duplicate aliquots were plated. The plates were then incubated, and the average colony forming units (CFU) recovered per milliliter were determined for each contact time. The contact times for the test compounds with S. aureus, E. coli, P. aeruginosa, and C. albicans were 30 sec, 1 min, and 5 min. The contact times for the test compounds with B. subtilis were 1 and 10 min, 1 h, 2 h, 3 h, and 24 h. The contact times for the test compounds with T. rubrum were 30 sec, 1 min and 10 min. The contact temperature was ambient room temperature (20-21° C.).
The fungus, T. rubrum, was inoculated onto Emmon's agar (EA) and incubated at 25-30° C. for 10-15 days. The mycelial mats from mature cultures were removed from the surface of at least 5 plates and macerated with sterile saline (SS) in a sterile glass tissue grinder. The suspension was filtered through sterile glass wool to remove the hyphae.
The density of the conidial suspension was determined by serially diluting the prepared culture in BPDW. Aliquots from selected dilutions were plated on duplicate EA plates. The plates were incubated for 3-5 days at 25-30° C. and then each plate was examined for enumeration.
The suspension was stored at 2-10° C. for 4 weeks before use. On the day of testing, the suspension was adjusted to yield approximately 5.0×10^8 CFU by dilution with BPDW.
Compliant with the ASTM procedure cited above, the challenge microorganism was added to the test material by dispensing 99 ml of the test material into two sterile flasks, each containing a stir bar. The reaction flasks were allowed to equilibrate to the test temperature for at least 10 minutes. The flasks were placed in water baths on stir plates and maintained at the test temperature with stirring. A 1 ml aliquot of the prepared inoculum of the challenge microorganism was added to each flask to begin the contact period. At each contact time, 1 ml aliquot samples were removed and added to tubes containing 9 ml PBDW+. Serial 10-fold dilutions of each sample were then prepared in PBDW dilution blanks. Duplicate aliquots from selected dilutions were plated using the appropriate agar.
Upon completion of all contact periods, all plates were inverted and incubated for the appropriate time and temperature as follows: bacteria and yeast were incubated over 2 nights at 37° C.±2° C., and the fungus was incubated for at least 5 nights at 25-30° C. Following incubation, all plates were removed, the colonies were counted and the CFU recovered per ml at each contact time were calculated.

[23] = tested on: C. albicans ATCC 10231; assay: NCCLS broth microdilution MIC and MFC (Example 10); assay type: cell-based, Candida albicans
Description: as §4
(§10) Amphotericin B, fluconazole, and Hibiclens were added as comparative agents in the fungal panels.
as §6
(§11) Microtiter panels were created on the day of MIC testing. A 50 μl aliquot of Mueller-Hinton broth (for bacterial strains) or RPMI 1640 (for fungal strains) was delivered to each well, except those in column one of the microtiter panel. The working solution of AMC and each of its components, and comparative agents were delivered to the designated wells in column one. AMC, components, and comparators were serially diluted across the panel. A 50 μl aliquot of bacterial or fungal suspension was then added to each well on the microtiter panel, using a new pipette tip for each aliquot. Panels were incubated at 35° C. for 16-20 h for the E. coli, P. aeruginosa, and S. aureus strains, 20-24 h for the S. pyogenes strain, and 48 h for the C. albicans strain. T. rubrum panels were incubated for 3 to 4 days before MICs were read. […] Fungal MICs (%) were read using an 80% reduction in the growth endpoint relative to the turbidity of the growth control for AMC, its components, and fluconazole. For amphotericin B, the endpoint was read as the complete inhibition of growth.
(§12) MFCs were determined in a similar manner.
(§13) The endpoint for amphotericin B was read as complete inhibition of growth. The MIC % is expressed as g/100 ml or ml/100 ml. […] The MFC % is expressed as g/100 ml or ml/100 ml.

[24] = tested on: T. rubrum ATCC 28188; assay: NCCLS broth microdilution MIC and MFC (Example 10); assay type: cell-based, Trichophyton rubrum; settings: for MFC, %: 99.9% inhibition of growth
Description: as §4, §10, §6, §11, §12, §13

[25] = tested on: C. albicans ATCC 10231; assay: NCCLS broth microdilution MIC and MFC (Example 11); assay type: cell-based, Candida albicans
Description: (§14) Strains of C. albicans (ATCC 10231) and T. rubrum (ATCC 28188) were tested in this study. Strains were removed from frozen stock and subcultured twice on blood agar to ensure that the strains had optimal growth and metabolic status before testing. Strains were tested by NCCLS broth microdilution (M27-A2, 2002) and challenged with AMC solution and its individual components […] ), and isopropanol. Amphotericin B, fluconazole, terbinafine, and Hibiclens were added as comparator compounds. […] Microtiter panels were created on the day of MIC testing. A 50 μl aliquot of RPMI 1640 was delivered to each well except those in column one of the microtiter panel. The working solution of AMC and each of its components, and comparative agents were delivered to the designated wells in column one; AMC, components, and comparators were serially diluted across the panel. A 50 μl aliquot of fungal suspension was then added to each well on the microtiter panel, using a new pipette tip for each aliquot. […] For amphotericin B, the endpoint was read as the complete inhibition of growth. […] MFCs were performed to determine the concentration at which ≧99% of the starting fungal inoculum was killed. […] After incubation, colony counts for each panel well plated were recorded. […] The endpoint for amphotericin B was read as complete inhibition of growth.

[26] = tested on: T. rubrum ATCC 28188; assay: NCCLS broth microdilution MIC and MFC (Example 11); assay type: cell-based, Trichophyton rubrum
Description: as §14

[27] = component at 100%; cited from earlier work; remark: listed apart in the source
[28] = tested on: Hepatitis B virus; settings: virus in dried human plasma exposed 10 min at 20 deg C. to 70% isopropanol; 9 months observation; cited from earlier work
[29] = tested on: dermatophyte infections; settings: dermatophyte infections in animals; cited from earlier work
[30] = tested on: Staphylococcus aureus (ATCC 25923); assay: Time-Kill test (Example 9); assay type: cell-based; settings: Study 509-101; at 30 seconds
Description: A panel of “challenge microorganisms,” including select bacteria, yeast, and fungi was used to assess the disinfecting properties of test compounds, e.g., AMC (DPT Laboratories). Specifically, the disinfectant property of test compounds were tested against Staphylococcus aureus (ATCC 25923); Staphylococcus epidermidis (ATCC 12228); Bacillus subtilis (ATCC 19659); Escherichia coli (ATCC 11229); and Pseudomonas aeruginosa (ATCC 15442) bacteria, as well as the yeast Candida albicans (ATCC 10231), and the fungus Trichophyton rubrum (ATCC 28188). The test procedure incorporated the recommendations described in the “Manual of Clinical Microbiology,” 5th ed., edited by A. B. Balows et al., ASM, Washington, as directed by the Federal Register, June 1994. […]
A single lot of test material was prepared at various concentrations, along with multiple compounds prepared in various concentrations and combinations. […] The plates were then incubated, and the average colony forming units (CFU) recovered per milliliter were determined for each contact time. […]
Bacteria and C. albicans from stock cultures were transferred into trypticase soya broth (TSB) and incubated for 18-24 hours at 37° C.±2° C. […] The microbe concentration was measured using a spectrophotometric technique well-known in the art. […]

[31] = in vivo; cited from earlier work
[32] = Estimated for AMC contained concentrations
[33] = Example 10, % as g/100 ml or ml/100 ml
[34] = 80% reduction in growth endpoint
[35] = MFC within 1 doubling dilution of the MIC

For `[O-2].[Zn+2]` [Zn oxide (100%), Zn oxide], the “Rat Oral LD50 (*Mouse data)” value [1] is given as 7,950 mg/Kg, the “Rabbit Dermal LD50” value [2] is given as >2,000 mg/Kg and the “Rat Inhalation LC50” value [3] is given as over 0.005 µg/mL. For the same compound, the “Rat Oral LD50” value [4, 32] was >>100,000 mg/Kg, the “Rabbit Dermal LD50” value [5, 32] was >>100,000 mg/Kg and the “Rat Inhalation LC50” value [6, 32] was over 4.2 µg/mL.

For `O=C(O)c1cn(C2CC2)c2cc(N3CCNCC3)c(F)cc2c1=O` [Ciprofloxacin], the MBC [7] was over 0.1 µg/mL, the MIC [7] was over 0.1 µg/mL and the MBC [8] was over 0.1 µg/mL. The MIC [8] was over 0.1 µg/mL, the MBC [9] was over 0.1 µg/mL and the MIC [9] was over 0.1 µg/mL. It also gave an MBC [10] of over 0.1 µg/mL, an MIC [10] of over 0.1 µg/mL and an MBC [11] of over 0.1 µg/mL. It also gave an MIC [11] of over 0.1 µg/mL, an MBC [12] of over 0.1 µg/mL and an MIC [12] of over 0.1 µg/mL. For the same compound, the MBC [13] was over 0.1 µg/mL, the MIC [13] was over 0.1 µg/mL and the “MCB” value [14] was 0.25 µg/mL. For the same compound, the bactericidal activity [14] was “bactericidal activity”, the MIC ([14]; Staphylococcus epidermidis, ATCC12228) was 0.25 µg/mL (≈ 0.754 µM) and the bactericidal activity ([15]; Example 10) was “bactericidal activity”. For the same compound, the MIC ([15]; Staphylococcus aureus, ATCC25923, Example 10) was 0.5 µg/mL (≈ 1.51 µM), the MBC ([15]; Staphylococcus aureus, ATCC25923, Example 10, read-out: MBC) was 0.5 µg/mL (≈ 1.51 µM) and the MIC ([16]; Streptococcus pyogenes, ATCC19615, Example 10) was 0.5 µg/mL (≈ 1.51 µM). For the same compound, the MBC ([16]; Streptococcus pyogenes, ATCC19615, Example 10, read-out: MBC) was 0.5 µg/mL (≈ 1.51 µM), the MIC ([17]; Escherichia coli, ATCC11229) was at most 0.03 µg/mL and the MIC ([18]; Pseudomonas aeruginosa, ATCC15442, Example 10) was 0.12 µg/mL (≈ 0.362 µM). For the same compound, the MBC ([18]; Pseudomonas aeruginosa, ATCC15442, Example 10, read-out: MBC) was 0.5 µg/mL (≈ 1.51 µM).

In the case of Monoglycinatecopper chloride complex, the “Death time of test-microorganisms (min) E. coli” value (“Death time … (min) E. coli” for short) ([19]; Conc. 0.1 %) is reported as over 30 min, the “Death time … (min) E. coli” value ([19]; Conc. 0.2 %) is reported as 30 min and the “Death time … (min) E. coli” value ([19]; Conc. 0.5 %) is reported as 15 min. The “Death time of test-microorganisms (min) S. aureus” value (“Death time … (min) S. aureus” for short) ([20]; Conc. 0.1 %) was over 30 min, the “Death time … (min) S. aureus” value ([20]; Conc. 0.2 %) was over 30 min and the “Death time … (min) S. aureus” value ([20]; Conc. 0.5 %) was over 30 min. The “Death time … (min) S. aureus” value ([20]; Conc. 5.0 %) was over 30 min and the “Death time of test-microorganisms (min) B. cereus” value [21] was over 360 min.

For `CC(C)O` [Isopropanol], the “Relative Kill Potency” value [22] was 0.64, the “reduction of T. rubrum count” value ([22]; Study 509-101, in 30 sec) was “not effective” and the “30-Second Log Reduction from Initial T. rubrum CFU Values” [22] was 0.8 Logs. For the same compound, the “MCB, %” value ([14]; % as g/100 ml or ml/100 ml) was 24.5%, the “MIC, %” value ([14]; % as g/100 ml or ml/100 ml) was 12.3% and the bactericidal activity [14] was “bactericidal activity”. The “MBC, %” value [15, 33] was 24.6%, the “MIC, %” value [15, 33] was 12.3% and the bactericidal activity ([15]; Example 10) was “bactericidal activity”. The “MBC, %” value [16, 33] was 12.3%, the “MIC, %” value [16, 33] was 12.3% and the “MIC, %” value ([17]; % as g/100 ml or ml/100 ml) was 6.1%. The “MBC, %” value [18, 33] was 12.3%, the “MIC, %” value [18, 33] was 3.1% and the “MIC, %” value [23, 34] was 1.5%. The “MFC, %” value ([23]; 99.9% inhibition of growth) was 1.5%, the fungicidal activity [23, 35] was “Fungal activity” and the “MIC, %” value ([24]; Example 10, 80% reduction in growth endpoint) was 0.2%. For the same compound, the “MFC, %” value ([24]; Example 10) was 0.4%, the fungicidal activity ([24]; Example 10, MFC within 1 doubling dilution of the MIC) was “Fungicidal activity was observed” and the “MFC, %” value [25] was 1.5%. For the same compound, the “MIC, %” value [25, 34] was 0.8%, the fungicidal activity [25, 35] was “Fungicidal activity” and the “MFC, %” value ([26]; Example 11) was 3.1%. The “MIC, %” value ([26]; Example 11, 80% reduction in growth endpoint) was 0.2%, the fungicidal activity ([26]; Example 11, MFC within 1 doubling dilution of the MIC) was “did not demonstrate fungicidal activity” and the “Rat Oral LD50” value [27] was >5,000 mg/Kg. The “infection after intravenous inoculation of treated viral material” value [28] was “did not show signs of infection”, the “Rabbit Dermal LD50” value [2] was 12,800 mg/Kg and the “Rat Inhalation LC50” value [3] was 72.6 µg/mL. For the same compound, the LD50 [4] was over 5000 mg/kg, the LD50 [5] was 25600 mg/kg and the LC50 [6] was 145 µg/mL (≈ 2410 µM).

In the case of `CC(C)N1CCN(c2ccc(N3CCN(c4ccc(OC[C@H]5OC[C@](Cn6cncn6)(c6ccc(F)cc6F)O5)cc4)CC3)cc2)C1=O` [Azoline], the “activity relative to itraconazole” value [29] is listed as 5 times.

In the case of `CCCCCCCCCCCCCCCC[n+]1ccccc1` [CPC, Cetyl Pyridinium Chloride], the “reduction of S. aureus count” value [30] is reported as 2 log10, the “30-Second Log Reduction from Initial T. rubrum CFU Values” [22] is reported as 3.4 Logs and the “MCB (μg/ml)” value [14] is reported as “(<=7) μg/ml”. For the same compound, the “MCB, %” value ([14]; % as g/100 ml or ml/100 ml) was “<=0.0007%”, the “MBC, %” value [15, 33] was “<=0.0007%” and the MBC ([15]; Staphylococcus aureus, ATCC25923) was at most 7 µg/mL. For the same compound, the “MBC, %” value [16, 33] was “<=0.0007%”, the MBC ([16]; Streptococcus pyogenes, ATCC19615) was at most 7 µg/mL and the “MBC, %” value [18, 33] was 0.04%. For the same compound, the MBC ([18]; Pseudomonas aeruginosa, ATCC15442) was 400 µg/mL, the “MFC, %” value ([24]; Example 10) was at most 0.0007% and the MFC ([24]; Trichophyton rubrum, ATCC28188) was at most 7 µg/mL. The “MFC, %” value ([26]; Example 11) was at most 0.0007%, the MFC ([26]; Trichophyton rubrum, ATCC28188) was at most 7 µg/mL and the “Rabbit Dermal LD50” value [2] was >2,000 mg/Kg. For the same compound, the “Rat Inhalation LC50” value [3] was 0.090 µg/mL, the LD50 [4] was 20000 mg/kg and the LD50 [5] was over 20000 mg/kg. For the same compound, the LC50 [6] was 9 µg/mL.

For `C=C1/C(=C/C=C2\CCC[C@]3(C)[C@@H]([C@@H](C)CCC(=O)N4CCCCC4)CC[C@@H]23)C[C@@H](O)C[C@@H]1O` [Ecalcidene], the “dose with immunological effects, times lower than doses causing toxicity associated with hypercalcemia” value [31] is given as 10-100 times.
